Several values for one entry are separate records, joined by “and”; a condition that tells them apart may be missing. Equal entries are not always repeated.
system: 186277-243-T-J2-PDC spheroids with HUVEC/MSC, viability; test: Anticancer human tumor 186277-243-T-J2-PDC patient-derived colon adenocarcinoma cell line growth inhibition [CLK]; details: compound 0.0316 µM; stronger effect = lower value
In short: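 Patient-derived tumor cells grown as complex spheroids with HUVEC endothelial cells and mesenchymal stem cells, treated with drug combinations. Concentrations descend in half-log steps from near clinical Cmax, or from 10 microM if Cmax unknown.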
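Further: compound exposure lasted seven days before readout.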
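Wherever viability, T/C is given: 100% = DMSO vehicle control wells.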

| Compound | viability, T/C |
| --- | --- |
| CC1(C)CCC(CN2CCN(c3ccc(C(=O)NS(=O)(=O)c4ccc(NCC5CCOCC5)c([N+](=O)[O-])c4)c(Oc4cnc5[nH]ccc5c4)c3)CC2)=C(c2ccc(Cl)cc2)C1 | 94.3% and 88.2% |
| C=CC(=O)N1CCN(c2nc(=O)n(-c3c(C)ccnc3C(C)C)c3nc(-c4c(O)cccc4F)c(F)cc23)C(C)C1 (stereo not drawn) | 103% and 87.6% |
| COc1ccc([C@@H](O)c2cc(-c3ncnc4cc(N5CCOCC5)ccc34)c(F)cc2Cl)nn1 | 95.1% |

same assay, conditions: compound 0.1 µM; stronger effect = lower value

| Compound | viability, T/C |
| --- | --- |
| CC1(C)CCC(CN2CCN(c3ccc(C(=O)NS(=O)(=O)c4ccc(NCC5CCOCC5)c([N+](=O)[O-])c4)c(Oc4cnc5[nH]ccc5c4)c3)CC2)=C(c2ccc(Cl)cc2)C1 | 85.8% and 90.3% |
| C=CC(=O)N1CCN(c2nc(=O)n(-c3c(C)ccnc3C(C)C)c3nc(-c4c(O)cccc4F)c(F)cc23)C(C)C1 (stereo not drawn) | 91.4% and 96.3% |
| COc1ccc([C@@H](O)c2cc(-c3ncnc4cc(N5CCOCC5)ccc34)c(F)cc2Cl)nn1 | 96.1% |
| CNC(=O)c1ccc(Nc2nc(OC3CCCC3)c3c(-c4ccc5nc(C)oc5c4)c[nH]c3n2)c(OC)c1 | 67.9% [middle of 12 runs] |

same assay, conditions: compound 0.316 µM; stronger effect = lower value

| Compound | viability, T/C |
| --- | --- |
| CC1(C)CCC(CN2CCN(c3ccc(C(=O)NS(=O)(=O)c4ccc(NCC5CCOCC5)c([N+](=O)[O-])c4)c(Oc4cnc5[nH]ccc5c4)c3)CC2)=C(c2ccc(Cl)cc2)C1 | 97% and 104% |
| C=CC(=O)N1CCN(c2nc(=O)n(-c3c(C)ccnc3C(C)C)c3nc(-c4c(O)cccc4F)c(F)cc23)C(C)C1 (stereo not drawn) | 97.5% and 90.2% |
| COc1ccc([C@@H](O)c2cc(-c3ncnc4cc(N5CCOCC5)ccc34)c(F)cc2Cl)nn1 | 117% |
| CNC(=O)c1ccc(Nc2nc(OC3CCCC3)c3c(-c4ccc5nc(C)oc5c4)c[nH]c3n2)c(OC)c1 | 46.2% [middle of 12 runs] |

same assay, conditions: compound 1 µM; stronger effect = lower value

| Compound | viability, T/C |
| --- | --- |
| CC1(C)CCC(CN2CCN(c3ccc(C(=O)NS(=O)(=O)c4ccc(NCC5CCOCC5)c([N+](=O)[O-])c4)c(Oc4cnc5[nH]ccc5c4)c3)CC2)=C(c2ccc(Cl)cc2)C1 | 86.5% and 99.3% |
| C=CC(=O)N1CCN(c2nc(=O)n(-c3c(C)ccnc3C(C)C)c3nc(-c4c(O)cccc4F)c(F)cc23)C(C)C1 (stereo not drawn) | 80.2% and 105% |
| COc1ccc([C@@H](O)c2cc(-c3ncnc4cc(N5CCOCC5)ccc34)c(F)cc2Cl)nn1 | 85.1% |
| CNC(=O)c1ccc(Nc2nc(OC3CCCC3)c3c(-c4ccc5nc(C)oc5c4)c[nH]c3n2)c(OC)c1 | 33% [middle of 12 runs] |

same assay, conditions: compound 3.16 µM; stronger effect = lower value

| Compound | viability, T/C |
| --- | --- |
| CC1(C)CCC(CN2CCN(c3ccc(C(=O)NS(=O)(=O)c4ccc(NCC5CCOCC5)c([N+](=O)[O-])c4)c(Oc4cnc5[nH]ccc5c4)c3)CC2)=C(c2ccc(Cl)cc2)C1 | 106% and 110% |
| C=CC(=O)N1CCN(c2nc(=O)n(-c3c(C)ccnc3C(C)C)c3nc(-c4c(O)cccc4F)c(F)cc23)C(C)C1 (stereo not drawn) | 107% and 105% |
| COc1ccc([C@@H](O)c2cc(-c3ncnc4cc(N5CCOCC5)ccc34)c(F)cc2Cl)nn1 | 87.2% |
| CNC(=O)c1ccc(Nc2nc(OC3CCCC3)c3c(-c4ccc5nc(C)oc5c4)c[nH]c3n2)c(OC)c1 | 32.1% [middle of 12 runs] |

same assay, conditions: compound 10 µM; stronger effect = lower value

| Compound | viability, T/C |
| --- | --- |
| CC1(C)CCC(CN2CCN(c3ccc(C(=O)NS(=O)(=O)c4ccc(NCC5CCOCC5)c([N+](=O)[O-])c4)c(Oc4cnc5[nH]ccc5c4)c3)CC2)=C(c2ccc(Cl)cc2)C1 | 10.5% and 10% |
| C=CC(=O)N1CCN(c2nc(=O)n(-c3c(C)ccnc3C(C)C)c3nc(-c4c(O)cccc4F)c(F)cc23)C(C)C1 (stereo not drawn) | 95.2% and 98.2% |
| COc1ccc([C@@H](O)c2cc(-c3ncnc4cc(N5CCOCC5)ccc34)c(F)cc2Cl)nn1 | 49.2% |
| CNC(=O)c1ccc(Nc2nc(OC3CCCC3)c3c(-c4ccc5nc(C)oc5c4)c[nH]c3n2)c(OC)c1 | 33.9% [middle of 11 runs] |

same assay, conditions: compound alone; run of 08/15/2023

| Compound | IC50 |
| --- | --- |
| CNC(=O)c1ccc(Nc2nc(OC3CCCC3)c3c(-c4ccc5nc(C)oc5c4)c[nH]c3n2)c(OC)c1 | 241 nM [middle of 12 runs] |

same assay, conditions: curve of compound

| Compound | IC50 |
| --- | --- |
| CC1(C)CCC(CN2CCN(c3ccc(C(=O)NS(=O)(=O)c4ccc(NCC5CCOCC5)c([N+](=O)[O-])c4)c(Oc4cnc5[nH]ccc5c4)c3)CC2)=C(c2ccc(Cl)cc2)C1 | 5.8 µM and 5.95 µM |
| C=CC(=O)N1CCN(c2nc(=O)n(-c3c(C)ccnc3C(C)C)c3nc(-c4c(O)cccc4F)c(F)cc23)C(C)C1 (stereo not drawn) | > 10 µM |
| COc1ccc([C@@H](O)c2cc(-c3ncnc4cc(N5CCOCC5)ccc34)c(F)cc2Cl)nn1 | 9.91 µM |

same assay, conditions: curve of first compound; second compound 0.0316 µM

| Compound | IC50 |
| --- | --- |
| CCc1c2c(nc3ccc(O)cc13)-c1cc3c(c(=O)n1C2)COC(=O)[C@]3(O)CC + CN1CCN(c2cc(C(=O)Nc3cc4cc(-c5cnn(C)c5)ccc4cn3)ccn2)CC1 | 0.0226 µM |
| CC1COCCN1c1cc(C2(S(C)(=N)=O)CC2)nc(-c2ccnc3[nH]ccc23)n1 (stereo not drawn) + CNC(=O)c1ccc(Nc2nc(OC3CCCC3)c3c(-c4ccc5nc(C)oc5c4)c[nH]c3n2)c(OC)c1 | 2.51 µM |
| CCCS(=O)(=O)Nc1ccc(F)c(C(=O)c2c[nH]c3ncc(-c4ccc(Cl)cc4)cc23)c1F + CNC(=O)c1ccc(Nc2nc(OC3CCCC3)c3c(-c4ccc5nc(C)oc5c4)c[nH]c3n2)c(OC)c1 | > 10 µM |
| O=C(c1cc(Cc2n[nH]c(=O)c3ccccc23)ccc1F)N1CCN(C(=O)C2CC2)CC1 + CN1CCN(c2cc(C(=O)Nc3cc4cc(-c5cnn(C)c5)ccc4cn3)ccn2)CC1 | > 10 µM |

same assay, conditions: curve of first compound; second compound 0.1 µM

| Compound | IC50 |
| --- | --- |
| CCc1c2c(nc3ccc(O)cc13)-c1cc3c(c(=O)n1C2)COC(=O)[C@]3(O)CC + CN1CCN(c2cc(C(=O)Nc3cc4cc(-c5cnn(C)c5)ccc4cn3)ccn2)CC1 | 0.0141 µM |
| CC1COCCN1c1cc(C2(S(C)(=N)=O)CC2)nc(-c2ccnc3[nH]ccc23)n1 (stereo not drawn) + CNC(=O)c1ccc(Nc2nc(OC3CCCC3)c3c(-c4ccc5nc(C)oc5c4)c[nH]c3n2)c(OC)c1 | 1.42 µM |
| CCCS(=O)(=O)Nc1ccc(F)c(C(=O)c2c[nH]c3ncc(-c4ccc(Cl)cc4)cc23)c1F + CNC(=O)c1ccc(Nc2nc(OC3CCCC3)c3c(-c4ccc5nc(C)oc5c4)c[nH]c3n2)c(OC)c1 | 6.98 µM |
| O=C(c1cc(Cc2n[nH]c(=O)c3ccccc23)ccc1F)N1CCN(C(=O)C2CC2)CC1 + CN1CCN(c2cc(C(=O)Nc3cc4cc(-c5cnn(C)c5)ccc4cn3)ccn2)CC1 | > 10 µM |

same assay, conditions: curve of first compound; second compound 0.316 µM

| Compound | IC50 |
| --- | --- |
| CCc1c2c(nc3ccc(O)cc13)-c1cc3c(c(=O)n1C2)COC(=O)[C@]3(O)CC + CN1CCN(c2cc(C(=O)Nc3cc4cc(-c5cnn(C)c5)ccc4cn3)ccn2)CC1 | < 0.00316 µM |
| CC1COCCN1c1cc(C2(S(C)(=N)=O)CC2)nc(-c2ccnc3[nH]ccc23)n1 (stereo not drawn) + CNC(=O)c1ccc(Nc2nc(OC3CCCC3)c3c(-c4ccc5nc(C)oc5c4)c[nH]c3n2)c(OC)c1 | 0.4 µM |
| CCCS(=O)(=O)Nc1ccc(F)c(C(=O)c2c[nH]c3ncc(-c4ccc(Cl)cc4)cc23)c1F + CNC(=O)c1ccc(Nc2nc(OC3CCCC3)c3c(-c4ccc5nc(C)oc5c4)c[nH]c3n2)c(OC)c1 | 3.62 µM |
| O=C(c1cc(Cc2n[nH]c(=O)c3ccccc23)ccc1F)N1CCN(C(=O)C2CC2)CC1 + CN1CCN(c2cc(C(=O)Nc3cc4cc(-c5cnn(C)c5)ccc4cn3)ccn2)CC1 | < 0.0316 µM |

same assay, conditions: curve of first compound; second compound 1 µM

| Compound | IC50 |
| --- | --- |
| CCc1c2c(nc3ccc(O)cc13)-c1cc3c(c(=O)n1C2)COC(=O)[C@]3(O)CC + CN1CCN(c2cc(C(=O)Nc3cc4cc(-c5cnn(C)c5)ccc4cn3)ccn2)CC1 | < 0.00316 µM |
| CC1COCCN1c1cc(C2(S(C)(=N)=O)CC2)nc(-c2ccnc3[nH]ccc23)n1 (stereo not drawn) + CNC(=O)c1ccc(Nc2nc(OC3CCCC3)c3c(-c4ccc5nc(C)oc5c4)c[nH]c3n2)c(OC)c1 | < 0.0316 µM |
| CCCS(=O)(=O)Nc1ccc(F)c(C(=O)c2c[nH]c3ncc(-c4ccc(Cl)cc4)cc23)c1F + CNC(=O)c1ccc(Nc2nc(OC3CCCC3)c3c(-c4ccc5nc(C)oc5c4)c[nH]c3n2)c(OC)c1 | < 0.0316 µM |
| O=C(c1cc(Cc2n[nH]c(=O)c3ccccc23)ccc1F)N1CCN(C(=O)C2CC2)CC1 + CN1CCN(c2cc(C(=O)Nc3cc4cc(-c5cnn(C)c5)ccc4cn3)ccn2)CC1 | < 0.0316 µM |

same assay, conditions: curve of first compound; second compound 3.16 µM

| Compound | IC50 |
| --- | --- |
| CCc1c2c(nc3ccc(O)cc13)-c1cc3c(c(=O)n1C2)COC(=O)[C@]3(O)CC + CN1CCN(c2cc(C(=O)Nc3cc4cc(-c5cnn(C)c5)ccc4cn3)ccn2)CC1 | < 0.00316 µM |
| CC1COCCN1c1cc(C2(S(C)(=N)=O)CC2)nc(-c2ccnc3[nH]ccc23)n1 (stereo not drawn) + CNC(=O)c1ccc(Nc2nc(OC3CCCC3)c3c(-c4ccc5nc(C)oc5c4)c[nH]c3n2)c(OC)c1 | < 0.0316 µM |
| CCCS(=O)(=O)Nc1ccc(F)c(C(=O)c2c[nH]c3ncc(-c4ccc(Cl)cc4)cc23)c1F + CNC(=O)c1ccc(Nc2nc(OC3CCCC3)c3c(-c4ccc5nc(C)oc5c4)c[nH]c3n2)c(OC)c1 | < 0.0316 µM |
| O=C(c1cc(Cc2n[nH]c(=O)c3ccccc23)ccc1F)N1CCN(C(=O)C2CC2)CC1 + CN1CCN(c2cc(C(=O)Nc3cc4cc(-c5cnn(C)c5)ccc4cn3)ccn2)CC1 | < 0.0316 µM |

same assay, conditions: curve of first compound; second compound 10 µM

| Compound | IC50 |
| --- | --- |
| CCc1c2c(nc3ccc(O)cc13)-c1cc3c(c(=O)n1C2)COC(=O)[C@]3(O)CC + CN1CCN(c2cc(C(=O)Nc3cc4cc(-c5cnn(C)c5)ccc4cn3)ccn2)CC1 | < 0.00316 µM |
